Paper PMC10916382, “Repurposing screen identifies novel candidates for broad-spectrum coronavirus antivirals and druggable host targets” (Antimicrobial Agents and Chemotherapy, 2024)
Structures can show the parent of a compound that is named as a salt. Where two headings read alike, the source gives them in different places.

Assays:
HCoV-229E = assay: microbe, parasite or virus in culture; assay type: cell-based, Homo sapiens sapiens; conditions: Human coronavirus 229E
in vitro [1] = conditions: human
in vitro [2] = assay: in vitro
[3] = Huh7.5, read-out: IC50 (µM), HCoV 229E
[4] = Huh-7.5/F-Luc cells, maximum tested dose 5 µM
[5] = Calu-3 cells, immunofluorescence imaging
[6] = Anti-SARS-CoV-2 screening on Calu-3 cells: viability [% of control], Calu-3 cells
[7] = Huh-7.5 cells, dose series, maximum tested dose 5 µM

SMILES | CC50 (µM) (Huh-7.5/F-Luc cells; [4]) | viability at 5 µM (in vitro [1]) [%] | Anti-SARS-CoV-2 screening on Calu-3 cells: intracellular SARS-CoV-2 infection measured via immunofluorescence imaging [% of control] (SARS-CoV-2; [5]) | viability at 48 h, 5 µM (in vitro [2]) [%] | viability (in vitro [2]; [6]) [%] | IC50 (HCoV-229E; Huh7.5) [µM] | CC50 (µM) (Huh-7.5/F-Luc cells; [7]) | further results
CC(C)Oc1ccc(-c2nc(-c3cccc4c3CC[C@@H]4NCCO)no2)cc1C#N [CBR-001-211-015-5] | greater than maximum tested dose | 129 |  |  |  |  |  | IC50 (HCoV-229E; [3]): 1.17 µM
CCNCc1cc(Nc2ccnc3cc(Cl)ccc23)ccc1O [CBR-001-843-604-9] | greater than maximum tested dose | 131 |  |  |  |  |  | IC50 (HCoV-229E; [3]): 1.43 µM
OCCN1CCN(CCC=C2c3ccccc3Sc3ccc(C(F)(F)F)cc32)CC1 [RFM-000-079-3] | greater than maximum tested dose | 145 | 104.52 % of control | 105 |  |  |  | IC50 (HCoV-229E; [3]): 1.73 µM
CC(=O)N(C)C1(c2ccccc2)CCN(CCC[C@]2(c3ccc(Cl)c(Cl)c3)CCCN(C(=O)c3ccccc3)C2)CC1 [RFM-000-080-6] | greater than maximum tested dose | 131 | 106.27 % of control |  | 113 |  |  | IC50 (HCoV-229E; [3]): 1.5 µM
C[C@@H]1CCCN1CCc1cc2cc(-c3ccc(C#N)cc3)ccc2o1 [RFM-000-099-7] | greater than maximum tested dose | 152 | 114.07 % of control |  | 98.3 |  |  | IC50 (HCoV-229E; [3]): 1.39 µM
CNCCC(Oc1cccc2ccccc12)c1cccs1 (stereo not shown) [RFM-000-319-0] |  | 143 |  |  |  |  |  | IC50 (HCoV-229E; Huh7.5, read-out: IC50 (µM), HCoV 229E, HCoV-229E/R-Luc on Huh-7.5/F-Luc cells, dose series, max. dose 5 µM): 1.44 µM; CC50 (µM) (Huh-7.5/F-Luc cells): greater than maximum tested dose; Anti-SARS-CoV-2 screening on Calu-3 cells: intracellular SARS-CoV-2 infection measured via immunofluorescence imaging [% of control] (SARS-CoV-2): 109.17 % of control; viability (in vitro [2]; Anti-SARS-CoV-2 screening on Calu-3 cells: viability [% of control]): 104%
CNc1cc(OC)c(C(=O)N[C@@H]2CCN(Cc3ccccc3)[C@@H]2C)cc1Cl [RFM-000-360-1] | greater than maximum tested dose | 134 | 103.45 % of control |  |  |  |  | IC50 (HCoV-229E; [3]): 2.36 µM; viability (in vitro [2]): 109%
OCCN1CCN(CCCN2c3ccccc3Sc3ccc(Cl)cc32)CC1 [RFM-000-391-8] | greater than maximum tested dose | 181 | 116.90 % of control | 110 |  |  |  | IC50 (HCoV-229E; [3]): 1.84 µM
CC(=O)[C@]1(O)Cc2c(O)c3c(c(O)c2[C@@H](O[C@H]2C[C@H](N)[C@H](O)[C@H](C)O2)C1)C(=O)c1ccccc1C3=O [RFM-000-458-0] |  | 103 |  | 15 |  |  |  | IC50 (HCoV-229E; [3]): 1.55 µM; CC50 (µM) (Huh-7.5/F-Luc cells): greater than maximum tested dose; Anti-SARS-CoV-2 screening on Calu-3 cells: intracellular SARS-CoV-2 infection measured via immunofluorescence imaging [% of control] (SARS-CoV-2): 139.58 % of control
CC(Cc1ccccc1)NCCC(c1ccccc1)c1ccccc1 (stereo not shown) [RFM-000-835-5] | greater than maximum tested dose | 140 | 102.68 % of control | 102 |  |  |  | IC50 (HCoV-229E; [3]): 1.53 µM
OCCN1CCN(CCCN2c3ccccc3Sc3ccc(C(F)(F)F)cc32)CC1 [RFM-001-668-2] | greater than maximum tested dose | 154 | 116.92 % of control |  | 99 |  |  | 
Cc1c(-c2ccc(O)cc2)n(Cc2ccc(OCCN3CCCCCC3)cc2)c2ccc(O)cc12 [RFM-002-868-2] | greater than maximum tested dose | 165 | 103.07 % of control |  |  |  |  | viability at 48 h, 5 µM (in vitro [2]; [6]): 96.9%
COc1ccc(C(C)C)cc1CN[C@@H]1C2CCN(CC2)[C@H]1C(c1ccccc1)c1ccccc1 [RFM-011-107-9] |  |  | 82.87 % of control | 83.9 |  | 1.1 | greater than maximum tested dose | 
COc1ccc(C(C)C)cc1CNC1C2CCN(CC2)C1C(c1ccccc1)c1ccccc1 (stereo not shown) [RFM-011-108-0] |  |  | 86.21 % of control | 96.4 |  | 0.85 | greater than maximum tested dose | 
CNCc1ccc(OC)c([C@@]2(N3CCC[C@H]3c3ncco3)C(=O)N(S(=O)(=O)c3ccc(OC)cc3)c3ccc(Cl)cc32)c1 [RFM-011-199-9] |  |  | 113.08 % of control |  | 95.4 | 0.8 | greater than maximum tested dose | 
CNCc1ccc(OC)c([C@]2(N3CCC[C@H]3c3ncco3)C(=O)N(S(=O)(=O)c3ccc(OC)cc3)c3ccc(Cl)cc32)c1 [RFM-011-200-5] |  |  | 106.10 % of control |  | 117 | 0.7 | greater than maximum tested dose | 

SMILES | CC50 (µM) (Huh-7.5/F-Luc cells; [4]) | viability at 5 µM (in vitro [1]) [%] | Anti-SARS-CoV-2 screening on Calu-3 cells: intracellular SARS-CoV-2 infection measured via immunofluorescence imaging [% of control] (SARS-CoV-2; [5]) | viability at 48 h, 5 µM (in vitro [2]) [%] | viability (in vitro [2]; [6]) [%] | IC50 (HCoV-229E; Huh7.5) [µM] | CC50 (µM) (Huh-7.5/F-Luc cells; [7]) | further results
CC(C)(Cc1ccc2ccccc2c1)NC[C@@H](O)COc1cccc(Cl)c1C#N [SB 262470] |  |  | 110.66 % of control |  | 106 | 0.96 | greater than maximum tested dose | 
CN1CCC(CNc2ccc3ncc(-c4cccc(OC(F)(F)F)c4)n3n2)CC1 [SGI-1776] |  |  | 100.18 % of control |  | 94.5 | 0.56 | greater than maximum tested dose | 
CC(C)(C)c1cnc(CSc2cnc(NC(=O)C3CCNCC3)s2)o1 [SNS-032] |  |  | 132.10 % of control |  | 39.8 | 0.21 | greater than maximum tested dose | 
CN(C)CCOc1ccc(/C(=C(/CCCl)c2ccccc2)c2ccccc2)cc1 [TOREMIFENE CITRATE] |  |  | 114.97 % of control |  |  | 1.02 | greater than maximum tested dose | viability (in vitro [2]): 95.3%
CCSc1ccc2c(c1)N(CCCN1CCN(C)CC1)c1ccccc1S2 [Thiethylperazine dimaleate] |  |  | 110.38 % of control |  | 95.3 | 0.93 | greater than maximum tested dose | 
Cc1ccc(Sc2ccccc2N2CCNCC2)c(C)c1 [Vortioxetine hydrobromide] |  |  | 101.64 % of control |  | 82.8 | 0.99 | greater than maximum tested dose | 
CNCc1ccc(C)c(NC(=O)c2ccc(Nc3nc(-c4ccccc4)c4ccccc4n3)cc2)c1 [XL-139] |  |  | 109.44 % of control |  | 107 | 0.62 | greater than maximum tested dose | 
OCCN1CCN(CC/C=C2/c3ccccc3Sc3ccc(Cl)cc32)CC1 [ZUCLOPENTHIXOL] |  |  | 108.85 % of control | 110 |  | 1.13 | greater than maximum tested dose | 
CCOc1cc2c(c(F)c1OCC)C(=N)N(CC(=O)c1cc(N3CCOCC3)c(OC)c(C(C)(C)C)c1)C2 [atopaxar] |  |  | 107.54 % of control |  | 81.4 | 0.49 | greater than maximum tested dose | 
COCC(=O)O[C@]1(CCN(C)CCCc2nc3ccccc3[nH]2)CCc2cc(F)ccc2[C@@H]1C(C)C [mibefradil dihydrochloride] |  |  | 108.00 % of control |  | 98.3 | 1.03 | greater than maximum tested dose | 
COc1ccc2c(c1)CCC(c1ccccc1)=C2c1ccc(OCCN2CCCC2)cc1 [nafoxidine] |  |  | 104.91 % of control | 110 |  | 0.37 | greater than maximum tested dose | 
CC(C)(C)NC[C@H](O)COc1ccccc1C1CCCC1 [penbutolol] |  |  | 102.38 % of control | 101 |  | 1.05 | greater than maximum tested dose | 
COc1cccc2c1C(=O)c1c(O)c3c(c(O)c1C2=O)C[C@@](O)(C(=O)CO)C[C@@H]3O[C@H]1C[C@H](N)[C@H](O[C@@H]2CCCCO2)[C@H](C)O1 [pirarubicin] |  |  | 112.83 % of control |  | 56.9 | 0.89 | greater than maximum tested dose | 
O=C1NCCN1CCN1CCC(c2cn(-c3ccc(F)cc3)c3ccc(Cl)cc23)CC1 [sertindole] |  |  | 107.90 % of control | 106 |  | 0.96 | greater than maximum tested dose | 
CN(C)CCOC1=Cc2ccccc2Sc2ccc(Cl)cc21 [zotepine] |  |  | 107.66 % of control | 98.1 |  | 1.04 | greater than maximum tested dose | 
